The METLIN SMRT retention time set (Domingo-Almenara et al. 2019)

Test: gradient 5% acetonitrile 3 min, to 50% in 2 min, to 85% in 15 min, held 3 min, 100 µL/min
Settings: column: Zorbax Extend-C18 2.1 x 50 mm; eluents: water / acetonitrile, 0.1% formic acid
Outline: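 The system's dead and dwell volumes were 40 μL and 900 μL, with a Zorbax Extend-C18 column (2.1 × 50 mm, 1.8 μm) run at 100 μL/min in water and acetonitrile containing 0.1% formic acid each. Pure standards were analyzed in mixtures of ~100 molecules by HPLC–quadrupole time-of-flight mass spectrometry in positive and negative ionization mode. Retention time was assigned from computationally picked, manually inspected adduct peaks.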

Structure (SMILES) | RP-LC retention time
O=C1CC(CNS(=O)(=O)c2ccc3c(c2)OCCO3)CN1c1ccc(Cl)cc1 (stereo not drawn) | 788 s
O=C(NC1CC1)C1CCN(c2nc3ccsc3c(=O)n2Cc2ccc(F)cc2)CC1 | 768 s
Cn1cnc2c(C(=O)NC3CCCCCC3)nn(-c3ccccc3)c2c1=O | 910 s
Cc1ccccc1CNC(=O)Cn1cccc1-c1nnc(-c2ccccc2)o1 | 950 s
Cc1ccc(NS(=O)(=O)c2cc3n(c2)CCCN(C)C3=O)cc1C | 720 s
CCOc1cc(CN2CCn3c(nn(CC4CC4)c3=O)C2)ccc1O | 606 s
Cc1nnc(-c2cc(S(=O)(=O)Nc3ccc(S(N)(=O)=O)cc3)c(C)n2C)o1 | 649 s
Cc1sc(-c2nc(C(C)C)cs2)cc1S(=O)(=O)NCc1ccc2c(c1)OCO2 | 1130 s
CCn1c(=O)sc2cc(S(=O)(=O)N3CCC(C(=O)Nc4cccc5c4CCCC5)CC3)ccc21 | 1010 s
Cc1cc(C)cc(OCc2nc(CCN(C)C(=O)c3cccs3)no2)c1 | 974 s
CCS(=O)(=O)N1CCCc2cc(C(=O)NC(C)C)ccc21 | 746 s
O=C(c1ccncc1)N1CCc2c([nH]c3ccccc23)C1c1ccccc1 (stereo not drawn) | 862 s
COC(=O)CC1=CC(SCC(=O)NC2CCc3ccccc32)=Nc2ccccc2N1 (stereo not drawn) | 547 s
CC1CCCN(c2nc(=O)n(CC(=O)Nc3ccc4c(c3)OCCO4)c3ccccc23)C1 (stereo not drawn) | 780 s
CN1C(=O)C2(CCN(C(=O)c3cccc(Cl)c3)C2)c2ccccc21 (stereo not drawn) | 811 s
Cn1nnc2cc(C(=O)N3CCC(C(=O)NC4CCCc5ccccc54)CC3)ccc21 (stereo not drawn) | 728 s
COc1ccc(Br)c2c1-c1nc(NC(=O)c3cccc(F)c3)sc1C2 | 1210 s
Fc1ccc(-c2csc(Nc3cccnc3)n2)cc1 | 669 s
CC(=O)N1CCc2ccccc2C1C(=O)NCc1ccc(C)c(C)c1 (stereo not drawn) | 833 s
Cc1ccccc1-c1nc(C)c(C(=O)NC2CC2)s1 | 863 s
C=CCN(CC=C)c1nc(-c2ccc(Cl)cc2)nc2ccccc12 | 936 s
CCCCS(=O)(=O)N1CCC(c2cc(N)on2)CC1 | 706 s
O=C(C1CCCCC1)N1CCCC1c1nc2ccccc2s1 (stereo not drawn) | 966 s

Structure (SMILES) | RP-LC retention time
O=C(c1ccc(OCC2CCCN2C(=O)c2ccc(Cl)cc2)cc1)N1CCOCC1 (stereo not drawn) | 795 s
Nc1ccccc1NC(=O)CCCCCC(=O)Nc1ccccc1 | 683 s
CC(C)NC(=O)N1CCC(c2noc(-c3cnccn3)n2)C1 (stereo not drawn) | 624 s
Cc1noc(-c2ccnc(-n3cnc(C(=O)NCc4ccc(Cl)cc4)c3)c2)n1 | 903 s
Cc1sc(-c2noc(C3CC3)n2)cc1S(=O)(=O)N1CCC(C(=O)N2CCOCC2)CC1 | 853 s
O=C1Nc2cc(C(=O)N3CCN(Cc4ccccc4)CC3)ccc2N2CCCCC12 (stereo not drawn) | 612 s
Cc1ccc(-n2c(N3CCCC(C(=O)Nc4ccc(F)c(C)c4)C3)nc3ccsc3c2=O)cc1 (stereo not drawn) | 1040 s
CCCSc1nc2c(c(=O)n(C)c(=O)n2C)n1C | 837 s
O=c1c2cc(-c3ccc(F)cc3)nn2ccn1Cc1ccc(Cl)cc1 | 1090 s
COc1ccc(N2CCN(C(=O)CN3CCN(Cc4ccccc4)C3=O)CC2)cc1 | 714 s
COc1cc(NS(=O)(=O)c2ccc(Nc3nc(-c4ccc(C)c(C)c4)cs3)cc2)nc(OC)n1 | 1190 s
O=C(Cn1ncc2c(c1=O)N(C1CC1)C(=O)CS2)NC1CCCC1 | 615 s
COc1ccccc1CNC(=O)C1CCN(c2cc(N3CCOCC3)ncn2)CC1 | 619 s
Cc1ccccc1NC(=O)N(C)CCc1noc(COc2ccccc2)n1 | 869 s
CC(C)n1cc(C2=CCN(S(=O)(=O)Cc3ccc(Cl)cc3)CC2)c2cccnc21 | 1130 s
CCOc1ccc(C(=O)NC2CCN(c3cc(-c4ccc(OC)cc4)[nH]n3)C2)cc1 (stereo not drawn) | 725 s
COC(=O)C1CCN(C(=O)Cc2csc(Nc3ccc(F)cc3)n2)CC1 | 689 s
Cc1ccc(C(=O)Nc2cc(-c3cccnc3)no2)cc1 | 764 s
Cc1ccc(CN2CCC(C3CCN(S(C)(=O)=O)CC3)C2)nc1 (stereo not drawn) | 580 s
O=C(NCc1cccnc1)C1CCN(Cc2cc3ccccc3n2Cc2cccc(F)c2)CC1 | 608 s
CC(=O)NCC(=O)N1CC(F)(F)C[C@H]1c1nc(C2CC2)no1 | 639 s
CC(C)OC(=O)Nc1ccc2nc(-c3cscn3)[nH]c2c1 | 666 s
Cc1ccc(NS(=O)(=O)c2ccc3c(c2)C(=O)N(C)c2ncccc2O3)cc1F | 957 s

Structure (SMILES) | RP-LC retention time
Cc1ccc(NC(=O)N2CCc3nc[nH]c3C2)cc1F | 606 s
CCN1CCC(N(Cc2ccc3c(c2)OCO3)C(=O)Nc2ccc(F)cc2)CC1 | 656 s
CC(C)c1nnc2n1CCN(C(=O)COc1cccc(Cl)c1)C2 | 667 s
CCn1ccc(C(=O)Nc2ccc(OCc3nnc(-c4ccc(Cl)cc4)o3)cc2)n1 | 1010 s
CCS(=O)(=O)c1nc2ccc(NS(=O)(=O)c3ccc(OC)c(Cl)c3)cc2s1 | 907 s
CCCN(C)C(=O)C1c2ccccc2CC(=O)N1Cc1ccccc1 (stereo not drawn) | 828 s
Cn1c(CNC(=O)C2CCC2)nc2c1CN(C(=O)Nc1ccc(F)cc1)CC2 | 603 s
COc1cccc(NC(=O)Cn2cnc3c(sc4nc(-c5ccccc5)ccc43)c2=O)c1 | 982 s
O=C(N1CCC(n2nc(-c3ccsc3)ccc2=O)CC1)C1(c2ccccc2)CC1 | 869 s
O=C(NCCc1ccccc1)C1CCCN(c2ncnc3c2nc2n3CCCCC2)C1 (stereo not drawn) | 758 s
CN(C)c1nccnc1OC1CCN(C(=O)c2ccccc2Br)C1 (stereo not drawn) | 752 s
COc1ccc(NC(=O)Cn2cccc(-c3nc(-c4ccc(OC)c(OC)c4)no3)c2=O)cc1OC | 722 s
Nc1nc(CN2CCN(c3ncccn3)CC2)nc(N2CCCCC2)n1 | 611 s
Cc1cccc(N2CCN(C(=O)c3cn4ccc(C)cc4n3)CC2)c1 | 668 s
O=C(Nc1ccc(SCC(=O)N2CCN(c3ccccc3)CC2)nn1)c1ccccc1 | 796 s
COc1ccc(S(=O)(=O)N2CCC(CCOc3ccccc3F)C2)cc1 (stereo not drawn) | 1060 s
CC(=O)c1cccc(C(=O)N2CCC3(CC2)N=C(c2ccc(C)cc2)NO3)c1 | 772 s
NC(=O)c1c(NC(=O)c2ccc(Br)s2)sc2c1CCCCC2 | 1040 s
O=C(NC1CCCCC1)C1CCN(c2cn[nH]c(=O)c2)C1 (stereo not drawn) | 614 s
COC(=O)c1cc2c(=O)n(-c3cc(Cl)ccc3Cl)ccc2nc1C | 944 s
Cc1cc(NC(=O)CCCSc2ccc(F)cc2)no1 | 838 s
Cc1cccc(S(=O)(=O)N(C)CC2CCOCC2)c1 | 863 s
